Results taken from patent publication US20160044914A1, “BIOCIDE COMPOSITIONS, METHODS OF MANUFACTURE, AND METHODS OF USE” (SEGETIS, INC., priority 2013, published 2016).
“Also recorded” adds a separate entry of the source.

Experiments:
[1] = Approximate solubility of technical grade active ingredients in the adjuvant solvents (shaker, iterative approach); details: for solubility in the three solvents, in words: Solvents I, II and III taken together
Protocol: Solubility studies were conducted using three materials to determine their ability to dissolve various biocide active ingredients: Solvent I-formula 1(a); Solvent II-formula 1(b); and Solvent III-formula 3(a). Active ingredients were chosen from three classes of biocides and primarily reflected difficult to dissolve actives. The following biocides were evaluated.
The approximate solubility of each technical grade active ingredient was determined in each of the solvents.
All examples were conducted on a 100 gram or 50 gram scale. The Dimethoate, 2,4-D, mesotrione and halosulfuron examples were conducted at 50 gram scale. All other examples were conducted on a 100 gram scale.
An amount of solvent was weighed into a 4 ounce jar (or 2 oz). An amount of active ingredient was weighed and added to the solvent in the jar. The jar was capped tightly and placed on a New Brunswick Scientific model C1 platform shaker. The samples were shaken at the 75% setting for 1 hour. During the mixing and after 1 hour each sample was examined and completeness of solubility noted. Using an iterative approach, an approximate solubility for each active ingredient in each of the solvents was determined. Each sample was allowed to sit undisturbed for 1 hour after mixing to determine if any crystallization would occur in those samples which dissolved.

[2] = cited from earlier work
[3] = Solvent I (formula 1(a)), % solids by weight, shaken 1 hour, minimum concentration tested 2.5%
[4] = Solvent II (formula 1(b)), % solids by weight, shaken 1 hour, minimum concentration tested 2.5%
[5] = Solvent III (formula 3(a)), % solids by weight, shaken 1 hour, minimum concentration tested 2.5%

Structure (SMILES)	solubility in the three solvents, in words [1]	approximate solubility range in Solvent I [1, 3] [%]	approximate solubility range in Solvent I ([1]; 1 h)	approximate solubility range in Solvent II ([1]; 1 h)	approximate solubility range in Solvent III ([1]; 1 h)	approximate solubility range in Solvent II [1, 4] [%]	further results
O=C(O)COc1ccc(Cl)cc1Cl [2,4-D]	did dissolve	–	–	–	–	–	–
COc1c(Cl)ccc(Cl)c1C(=O)O [Dicamba]	greatest solubility; also recorded: did dissolve	<10	–	–	–	–	–
OC(Cn1cncn1)(c1ccc(F)cc1)c1ccccc1F (stereo not drawn) [Flutrifol]	–	–	>2.5%; <5%	>2.5%; <5%	>5%; <20%	–	–
CS(=O)(=O)NC(=O)c1cc(Oc2ccc(C(F)(F)F)cc2Cl)ccc1[N+](=O)[O-] [Fomesafen]	–	–	<2.5%	>2.5%; <10%	>5%; <10%	–	–
CC1(C)[C@H](C(=O)O[C@H](C#N)c2cccc(Oc3ccccc3)c2)[C@@H]1/C=C(\Cl)C(F)(F)F [Gamma cyhalothrin]	greatest solubility	>80	–	–	–	>80	approximate solubility range in Solvent III [1, 5]: >80%
O=C(O)CNCP(=O)(O)O [Glyphosate]	not very soluble	<2.5	–	–	–	<2.5	approximate solubility range in Solvent III [1, 5]: <2.5%; solubility in most solvents, including water ([2]; most solvents, including water): not soluble to any great extent
COc1cc(OC)nc(NC(=O)NS(=O)(=O)c2c(C(=O)O)c(Cl)nn2C)n1 [Halosulfuron]	–	–	<2.5%	<2.5%	>2.5%; <5%	–	–
CS(=O)(=O)c1ccc(C(=O)C2C(=O)CCCC2=O)c([N+](=O)[O-])c1 [Mesotrione]	–	<2.5	–	–	–	<2.5	solubility in Solvent III, in words ([1]; Solvent III): soluble; solubility in acetonitrile and acetone ([2]; acetonitrile and acetone): limited solubility
COCC(=O)N(c1c(C)cccc1C)C(C)C(=O)OC (stereo not drawn) [Metalaxyl]	greatest solubility	–	–	–	–	–	–
CCOC(=O)CCC(C)=O [Solvent III]	–	–	–	–	–	–	solvating properties compared among the three solvents ([1]; in all but one active ingredient, for those active ingredients which were soluble): best solvating properties
